Reference: ChEMBL document CHEMBL3507680, “University of Dundee, Gates Library screen for HepG2 cell viability”

Assay: Human HepG2 cell viability assay in 384 well format
Assay type: toxicity, cell-based
Design: dose 125 nL, time 70.5 hour; cytotoxicity at 70.5 h: concentration not given beside the values
Conditions: HepG2 cells, read-out: Inhibition

Compound	cytotoxicity at 70.5 h [%]
Cc1nc(C)c(CCNc2ccc(S(N)(=O)=O)cc2C#N)s1	-15
CCC(C(=O)Nc1ccc2cn(CC)nc2c1)N1CCCC1=O (stereo unspecified)	-24.8
Cc1ccnc(NC(=O)C2CCN(CCCn3ccnc3)CC2)c1	-15.3
COc1cccc(CN(C)Cc2nc(C(C)C)no2)c1	14.7
CO[C@H]1CN(C(=O)OC(C)(C)C)CC1NCc1cccn1C (stereo partly specified)	-8.94
CO[C@H]1CN(C(=O)OC(C)(C)C)CC1NCc1cc[nH]c1 (stereo partly specified)	-20.4
CCN1CCc2c(cccc2NC(=O)CN(C)C2CCSC2)C1 (stereo unspecified)	-3.51
Cn1cc(CCNCC2CNc3ccnn3C2)cn1 (stereo unspecified)	1.67
COCCS(=O)(=O)NC(C)c1ccc(-n2nc(C)cc2C)cc1 (stereo unspecified)	3.86
N#Cc1c(F)cccc1N1CCN(S(=O)(=O)c2cccs2)CC1	8.47
COc1ccc(C2CCCN2C(=O)NCCNc2ncccn2)cc1 (stereo unspecified)	-4.74
CCCOc1cc(C)ccc1NC(=O)NCCC(=O)N(C)C	-2.29
O=C(NCC1CC1)C1CSCN1S(=O)(=O)c1cccc(F)c1 (stereo unspecified)	-0.541
CC(O)CN1CCC(CNCc2ccc(S(C)(=O)=O)cc2)CC1 (stereo unspecified)	-3.17
CC(C1CC1)N(C)C(=O)c1cnc(-c2ccc3c(c2)OCO3)s1 (stereo unspecified)	13.8
Cc1cccc(N2CCC(NC(=O)CCCc3cccs3)CC2)n1	-2.62
CSCC(CCO)NC(=O)Nc1cc(C)ccc1C (stereo unspecified)	0.113
OCC1CCCN1c1cc(NCCNc2ccccn2)ncn1 (stereo unspecified)	0.758
Cc1cn(-c2ccccc2)nc1NS(=O)(=O)c1cc(C(=O)O)cs1	14.9
Cc1ccc(C(=O)O)cc1S(=O)(=O)Nc1nn(-c2ccccc2)cc1C	-0.199
CC1CN(C)c2ccccc2CN1C(=O)c1ccc[nH]1 (stereo unspecified)	0.885

Compound	cytotoxicity at 70.5 h [%]
OCC1CCCN1c1cc(NCCc2c[nH]c3ccccc23)ncn1 (stereo unspecified)	1.16
CC(C)c1nc(CN(C)C2CCN(CC(F)(F)F)C2)no1 (stereo unspecified)	1.98
CS(=O)(=O)c1ccc(CNCC2CCN(CCO)CC2)cc1	18.2
CC1CN(C)c2ccccc2CN1C(=O)c1ccncc1 (stereo unspecified)	0.805
COc1ccc(C2CCCN2C(=O)CCNc2ncccn2)cc1 (stereo unspecified)	-5.82
Cn1nnc2cc(C(=O)N3CCCC3Cc3ccccc3)ccc21 (stereo unspecified)	-1.35
Cc1cccc(CCC(=O)N2CCOCC2c2c(C)n[nH]c2C)c1 (stereo unspecified)	17.3
CCN1CC(C(=O)NCc2ccnc(-n3ccnc3C)c2)CC1=O (stereo unspecified)	-1.78
CCn1ccnc1CN1CCN(Cc2ccccn2)CC1C (stereo unspecified)	9.97
CNc1cc(N2CCCC2CNCc2ccccn2)ncn1 (stereo unspecified)	14.8
NC(=O)c1cc(NC(=O)N2CCCCCC2)ccc1F	35.1
CCN(CC)C(CNS(=O)(=O)c1ccc(C(=O)NC)cc1)c1ccco1 (stereo unspecified)	-8.07
Cc1cc(C)n(CC2CN(Cc3cccc(C(N)=O)c3)CCO2)n1 (stereo unspecified)	6.91
O=C(NCCCOCC1CC1)Nc1cccnc1N1CCOCC1	-5.01
Cc1nn(CC(=O)N2CCCCC2Cn2cccn2)c(C)c1Cl (stereo unspecified)	-0.411
CC(Oc1ccccc1C(F)(F)F)C(=O)NCC(N)=O (stereo unspecified)	-1.2
Cc1cccc(N2CCN(CCCNC(=O)c3nccn3C)CC2)c1	-3.1
Cc1nc(C)n(CC2CN(Cc3cccc(C(N)=O)c3)CCO2)n1 (stereo unspecified)	-4.7
COc1c(C2CCCN2C(=O)c2cc(Cl)c[nH]2)c(C)nn1C (stereo unspecified)	-0.121
NC(=O)c1ccc(NC(=O)CCN2CCCC(N3CCCC3)C2)cc1 (stereo unspecified)	12.4
Cc1cc(NC(=O)N2CCN(c3nc(C)c(C)s3)CC2)no1	21.7

Compound	cytotoxicity at 70.5 h [%]
CC(=O)N1CCCC1c1nnc2n1CCCCC2 (stereo unspecified)	2.96
Cn1ccnc1CNC(=O)N1CCCC(Cc2nccn2C)C1 (stereo unspecified)	2.69
Cc1nn(C)c(C)c1CCC(=O)N1CCCC1Cn1cccn1 (stereo unspecified)	-2.38
Cc1cc(C)n(C2CCCN(C(=O)c3ccc(F)cc3F)C2)n1 (stereo unspecified)	-0.896
Cc1nc(C)n(C2CCCN(C(=O)Cc3cccnc3)C2)n1 (stereo unspecified)	3.66
Cc1nn(C)c(C)c1C1CCCN1C(=O)c1ccc(Cl)o1 (stereo unspecified)	3.22
O=C(Nc1ccccc1)N1C[C@H]2C[C@H](C(=O)N3CCCC3)[C@@H](C1)O2	15.5
CC1CC2(CCN(C(=O)c3c[nH]cn3)CC2)c2ccccc21 (stereo unspecified)	-8.21
O=c1cc(CN2CCCC2)nc2n1CCCN(S(=O)(=O)C1CC1)C2	-1.37
Cc1cccc(N2CCOCC3(C2)CN(c2cccnc2)C(=O)CO3)n1 (stereo unspecified)	-4.82
CCc1ccc(NC(=O)N2C[C@H]3C[C@H](C(=O)NC4CCC4)[C@@H](C2)O3)cc1	8.99
O=C(C1CCOC1)N1CC2(CCN(c3ccccc3)C2)C1 (stereo unspecified)	-0.441
CCS(=O)(=O)N1CCCn2c(nc(CN3CCCC3)cc2=O)C1	-7.43
COc1cc(N2CCC3(CC2)OCC(=O)NC3C)ncn1 (stereo unspecified)	-4.57
Cn1cc(CN2CCC[C@]3(C[C@H](Oc4ccccn4)CO3)C2)cn1	-7.75
Cn1ccnc1CN1CCc2c(COCC3CC3)nn(C)c2C1	-6.3
COc1cccc(-c2ccc3nc(C4CCN(C(C)=O)CC4)nn3c2)c1	-4.61
CC(=O)N1CCC(c2nc3ccc(-c4cccc(F)c4)cn3n2)CC1	-9.34
Cc1nc(CN2CCC23CCN(C(=O)c2ccco2)CC3)cs1	-1.36
CCO[C@@H]1CO[C@@]2(CCCN(S(=O)(=O)c3ccccc3)C2)C1	-8.47
O=S(=O)(c1ccccc1)N1CCC[C@]2(C[C@H](OCC3CC3)CO2)C1	-9.34

Compound	cytotoxicity at 70.5 h [%]
CCOC1COC2(CCN(S(=O)(=O)c3cccc(C)c3)CC2)C1 (stereo unspecified)	-6.02
Cn1ccc(-c2cc(C(=O)N3CCOCC3)c3ccccn23)n1	3.83
O=C(NCc1cncc2c1CCN(CC1CCOC1)C2)c1ccco1 (stereo unspecified)	19.6
Fc1ccc2c(c1)C1(CCNCC1)CC2NC1CC1 (stereo unspecified)	14.1
c1ccc(OC[C@@H]2CCC[C@@]23CNCCO3)nc1	10.8
Cc1ccc(CN2CCc3c(COCC4CC4)nn(C)c3C2)s1	21.5
COc1ncccc1CN1C[C@H]2CCN(c3ncccn3)C[C@H]2C1	1.43
Cc1cccc(N2CCOCC3(C2)CN(c2ccccc2)C(=O)CO3)n1 (stereo unspecified)	-4.51
c1coc(CN2CCO[C@H]3[C@H](OCC4CCCC4)CC[C@@H]32)c1	11.8
CN1CCC(c2nc3ccc(-c4cccc(F)c4)cn3n2)CC1	-6.5
O=C(NCc1cccnc1)c1nc2c(s1)CCCN2C(=O)C1CC1	-3.72
O=C1NCCN(CC2CC2)C12CCN(Cc1ccccc1)CC2	13.9
COCC1CN(Cc2ccoc2)Cc2nn(C)cc21 (stereo unspecified)	-2.22
Cn1cc(CN2CCC[C@]3(C[C@@H](Oc4ccccn4)CO3)C2)cn1	-6.69
CCC(=O)N1CC[C@H]2[C@H](C[C@@H](CN3CCCC3)N2c2nccs2)C1	-3.2
CC(=O)N1CC[C@H]2[C@H](C[C@@H](CN3CCCC3)N2c2nccs2)C1	-7.72
CS(=O)(=O)N1Cc2ccnn2CC(C(=O)NCc2cccnc2)C1 (stereo unspecified)	20.5
CN1CC[C@H]2[C@H](C[C@@H](CN3CCCC3)N2c2nccs2)C1	-3.73
